Results as given in patent US20250230193A1, “CYCLIC COMPOUND HAVING SELECTIVE KRAS INHIBITORY EFFECT ON HRAS AND NRAS” (CHUGAI SEIYAKU KABUSHIKI KAISHA, priority 2022, published 2025).
Where a SMILES comes first, the peptide text is derived from it. Bridges are numbered along the chain shown (N, C = ends). [ ]: non-standard residue; d: D form. hPhe(3-Cl-4-CF3) = N[C@@H](CCc1ccc(C(F)(F)F)c(Cl)c1)C(=O)O; NPrPhe(4-CF3) = CCCN[C@@H](Cc1ccc(C(F)(F)F)cc1)C(=O)O; NMeGly(cPent) = CN[C@H](C(=O)O)C1CCCC1; Hyp = O=C(O)[C@@H]1C[C@@H](O)CN1; NMeD = CN[C@@H](CC(=O)O)C(=O)O; NMeL = CN[C@@H](CC(C)C)C(=O)O; Ac5c = NC1(C(=O)O)CCCC1; Aze = O=C(O)[C@@H]1CCN1; Sar = CNCC(=O)O

Key:
[1] = target: GDP-bound HRAS wild-type protein (Homo sapiens, UniProt P01112); test: Binding to HRAS by surface plasmon resonance (SPR), Single Cycle Kinetics
[2] = target: GDP-bound NRAS wild-type protein (Homo sapiens, UniProt P01111); test: Binding to NRAS by surface plasmon resonance (SPR), Single Cycle Kinetics
[3] = KD ratio, GDP-bound HRAS wild-type vs GDP-bound KRAS wild-type, SPR
[4] = KD ratio, GDP-bound NRAS wild-type vs GDP-bound KRAS wild-type, SPR

Sequence of GDP-bound HRAS wild-type protein (P01112 whole entry): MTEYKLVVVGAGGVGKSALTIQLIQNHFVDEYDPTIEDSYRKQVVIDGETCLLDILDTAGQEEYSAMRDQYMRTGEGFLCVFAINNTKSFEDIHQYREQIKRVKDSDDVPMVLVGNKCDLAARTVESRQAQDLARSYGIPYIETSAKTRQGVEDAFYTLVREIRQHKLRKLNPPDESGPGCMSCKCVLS
Sequence of GDP-bound NRAS wild-type protein (P01111 whole entry): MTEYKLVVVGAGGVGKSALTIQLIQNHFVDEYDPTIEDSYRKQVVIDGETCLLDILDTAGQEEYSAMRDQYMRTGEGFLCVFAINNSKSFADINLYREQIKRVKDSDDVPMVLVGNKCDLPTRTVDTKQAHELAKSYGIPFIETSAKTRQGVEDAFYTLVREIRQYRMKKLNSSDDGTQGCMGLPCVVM

Compound | HRAS/KRAS (ratio of KD value with respect to GDP-bound HRAS wild-type protein to KD value with respect to KRAS) ([1]; SPR) | NRAS/KRAS (ratio of KD value with respect to GDP-bound NRAS wild-type protein to KD value with respect to KRAS) ([2]; SPR) | HRAS/KRAS (ratio of KD value with respect to HRAS to KD value with respect to KRAS) [1, 3] | NRAS/KRAS (ratio of KD value with respect to NRAS to KD value with respect to KRAS) [2, 4] | also measured
CCC(CC)[C@H]1C(=O)N(C)[C@H](C(=O)N(C)C)CC(=O)N(C)[C@@H](COC)C(=O)N[C@@H]([C@@H](C)CC)C(=O)N2CCC[C@H]2C(=O)N(C)[C@H]2C/C=C\CCN(C2=O)[C@@H](Cc2ccc(C(F)F)cc2)C(=O)N(C)CC(=O)N[C@@H](CCc2ccc(Cl)c(Cl)c2)C(=O)N2C[C@H](OC3CCCC3)C[C@H]2C(=O)NC2(CC(C)(C)C2)C(=O)N1C [PP2652] |  |  |  |  | HRAS/KRAS (ratio of KD value with respect to GDP-bound HRAS wild-type protein to KD value with respect to KRAS) ([1]; class symbols): A (a compound having 10 or more and less than 20 is denoted as A); NRAS/KRAS (ratio of KD value with respect to GDP-bound NRAS wild-type protein to KD value with respect to KRAS) ([2]; class symbols): AA (a compound having 20 or more is denoted as AA)
CCCN1C(=O)[C@@H]2CCN2C(=O)CN(C)C(=O)[C@H]([C@@H](C)CC)NC(=O)[C@H](CC(C)C)N(C)C(=O)C[C@@H](C(=O)N(C)C)N(C)C(=O)[C@H](C2CCCC2)N(C)C(=O)C2(CCCC2)NC(=O)[C@@H]2C[C@@H](OCC)CN2C(=O)[C@H](CCc2ccc(C(F)(F)F)c(Cl)c2)NC(=O)CN(C)C(=O)[C@@H]1Cc1ccc(C(F)(F)F)cc1 [PP0444] ([NMeL]I[Sar][Aze][NPrPhe(4-CF3)][Sar][hPhe(3-Cl-4-CF3)][Hyp](Et)[Ac5c][NMeGly(cPent)][NMeD]-NMe2; lactam N-11) | C (A compound having a KD ratio of 0.1 or more and less than 3 is denoted as C) | C (A compound having a KD ratio of 0.1 or more and less than 3 is denoted as C) |  |  | 
CCCOC[C@H]1C(=O)N[C@@H]([C@@H](C)CC)C(=O)N(C)CC(=O)N(C)[C@H]2C/C=C\CCN(C2=O)[C@@H](Cc2ccc(C(F)(F)F)cc2)C(=O)N(C)CC(=O)N[C@@H](CCc2cc(F)c(C(F)(F)F)c(F)c2)C(=O)N2C[C@H](OCC)C[C@H]2C(=O)NC2(CC(C)(C)C2)C(=O)N(C)[C@@H](C2CCCC2)C(=O)N(C)[C@H](C(=O)N(C)CCC)CC(=O)N1C [PP1673] |  |  |  |  | HRAS/KRAS (ratio of KD value for HRAS to KD value for KRAS) [1, 3]: A (a compound having 10 or more and less than 20 is denoted as A); NRAS/KRAS (ratio of KD value for NRAS to KD value for KRAS) [2, 4]: A (a compound having 10 or more and less than 20 is denoted as A)
CC[C@H](C)[C@@H]1NC(=O)[C@H](CC(C)C)N(C)C(=O)C[C@@H](C(=O)N2CCOCC2)N(C)C(=O)[C@H](C2CCCC2)N(C)C(=O)C2(CCCC2)NC(=O)[C@@H]2CCCN2C(=O)[C@H](CCc2ccc(C(F)(F)F)c(Cl)c2)NC(=O)CN(C)C(=O)[C@H](Cc2ccc(F)cc2)N2C/C=C\CC[C@@H](C2=O)N(C)C(=O)CN(C)C1=O [PP0607] | B (a compound having 3 or more and less than 10 is denoted as B) | C (A compound having a KD ratio of 0.1 or more and less than 3 is denoted as C) |  |  | 
CCO[C@@H]1C[C@H]2C(=O)NC3(CCC3)C(=O)N(C)[C@@H](C3CCCC3)C(=O)N(C)[C@H](C(=O)N(C)C)CC(=O)N(C)[C@@H](CC(F)F)C(=O)N[C@@H]([C@@H](C)CC)C(=O)N(C)CC(=O)N(C)[C@H]3CCCCCN(C3=O)[C@@H](Cc3ccc(F)cc3)C(=O)N(C)CC(=O)N[C@@H](CCc3cc(F)c(C(F)(F)F)c(F)c3)C(=O)N2C1 [PP1191] |  |  | B (a compound having 3 or more and less than 10 is denoted as B) | A (a compound having 10 or more and less than 20 is denoted as A) | 
CC[C@H](C)[C@@H]1NC(=O)[C@H](CC(C)C)N(C)C(=O)C[C@@H](C(=O)N2CCOCC2)N(C)C(=O)[C@H](C2CCCC2)N(C)C(=O)C2(CCC2)NC(=O)[C@@H]2C[C@@H](OCC3CC3)CN2C(=O)[C@H](CCc2cc(F)c(C(F)(F)F)c(F)c2)NC(=O)CN(C)C(=O)[C@H](Cc2ccc(C(F)(F)F)cc2)N2CCCC[C@@H](C2=O)N(C)C(=O)CN(C)C1=O [PP1014] |  |  | C (A compound having a KD ratio of 0.1 or more and less than 3 is denoted as C) | C (A compound having a KD ratio of 0.1 or more and less than 3 is denoted as C) | 
